This note sets out measurements from patent US20210085688A1, “PHARMACEUTICAL COMBINATIONS OF EGFR INHIBITORS AND METHODS OF USE THEREOF” (DANA-FARBER CANCER INSTITUTE, INC., priority 2018, published 2021).

Molecules are shown by their SMILES. Where two headings read alike, the source gives them in different places.

The assay concerns the target EGFR T790M/L858R Ba/F3 cell line (Homo sapiens, UniProt P00533, T790M/L858R, cells depend on it). Description: Ba/F3 cell proliferation (MTS assay), EGFR T790M/L858R. Type of assay: cell-based, murine. The method, then:
The EGFR mutant L858R, Del E746_A750, L858R/T790M, DelE746_A750/T790M, L858R/T790M/C797S and Del/T790M/C797S Ba/F3 cells were previously described (Zhou et al., Nature 462, (2009), 1070-1074). All cell lines were maintained in RPMI 1640 (Cellgro; Mediatech Inc., Herndon, Calif.) supplemented with 10% FBS 100 units/mL penicillin, 100 units/mL streptomycin, and 2 mM glutamine. L858R cells were maintained in ACL-4 media (Invitrogen, Carlsbad, Calif.) supplemented with 5% FBS, 100 units/mL penicillin, 100 units/mL streptomycin, and 2 mM glutamine. The EGFR I941R mutation was introduced via site directed mutagenesis using the Quick Change Site-Directed Mutagenesis kit (Stratagene; La Jolla, Calif.) according to the manufacturer's instructions. All constructs were confirmed by DNA sequencing. The constructs were shuttled into the retroviral vector JP1540 using the BD Creator™ System (BD Biosciences). Ba/F3 cells were infected with retrovirus and according to standard protocols, as described previously (Zhou 2009). Stable clones were obtained by selection in puromycin (2 μg/ml).
Growth and inhibition of growth was assessed by MTS assay and was performed according to previously established methods (Zhou 2009). The MTS assay is a colorimetric method for determining the number of viable cells that is based on the bioreduction of MTS by cells to a formazan product that is soluble in cell culture medium and can be detected spectrophotometrically. […] All experimental points were set up in six wells and all experiments were repeated at least three times. […] The curves were fitted using a non-linear regression model with a sigmoidal dose response.
(Formazan colour is commonly taken as a measure of viable cells.)

The mark [1] stands for this setting: absence of cetuximab, read-out: Ba/F3 cellular activity (EC50) T790M/L858R.
Where [2] appears, read: read-out: Ba/F3 cellular activity (EC50) T790M/L858R + Cetuximab, presence of 1 μg/mL cetuximab.

Chain of EGFR T790M/L858R Ba/F3 cell line (P00533 whole entry T790M/L858R): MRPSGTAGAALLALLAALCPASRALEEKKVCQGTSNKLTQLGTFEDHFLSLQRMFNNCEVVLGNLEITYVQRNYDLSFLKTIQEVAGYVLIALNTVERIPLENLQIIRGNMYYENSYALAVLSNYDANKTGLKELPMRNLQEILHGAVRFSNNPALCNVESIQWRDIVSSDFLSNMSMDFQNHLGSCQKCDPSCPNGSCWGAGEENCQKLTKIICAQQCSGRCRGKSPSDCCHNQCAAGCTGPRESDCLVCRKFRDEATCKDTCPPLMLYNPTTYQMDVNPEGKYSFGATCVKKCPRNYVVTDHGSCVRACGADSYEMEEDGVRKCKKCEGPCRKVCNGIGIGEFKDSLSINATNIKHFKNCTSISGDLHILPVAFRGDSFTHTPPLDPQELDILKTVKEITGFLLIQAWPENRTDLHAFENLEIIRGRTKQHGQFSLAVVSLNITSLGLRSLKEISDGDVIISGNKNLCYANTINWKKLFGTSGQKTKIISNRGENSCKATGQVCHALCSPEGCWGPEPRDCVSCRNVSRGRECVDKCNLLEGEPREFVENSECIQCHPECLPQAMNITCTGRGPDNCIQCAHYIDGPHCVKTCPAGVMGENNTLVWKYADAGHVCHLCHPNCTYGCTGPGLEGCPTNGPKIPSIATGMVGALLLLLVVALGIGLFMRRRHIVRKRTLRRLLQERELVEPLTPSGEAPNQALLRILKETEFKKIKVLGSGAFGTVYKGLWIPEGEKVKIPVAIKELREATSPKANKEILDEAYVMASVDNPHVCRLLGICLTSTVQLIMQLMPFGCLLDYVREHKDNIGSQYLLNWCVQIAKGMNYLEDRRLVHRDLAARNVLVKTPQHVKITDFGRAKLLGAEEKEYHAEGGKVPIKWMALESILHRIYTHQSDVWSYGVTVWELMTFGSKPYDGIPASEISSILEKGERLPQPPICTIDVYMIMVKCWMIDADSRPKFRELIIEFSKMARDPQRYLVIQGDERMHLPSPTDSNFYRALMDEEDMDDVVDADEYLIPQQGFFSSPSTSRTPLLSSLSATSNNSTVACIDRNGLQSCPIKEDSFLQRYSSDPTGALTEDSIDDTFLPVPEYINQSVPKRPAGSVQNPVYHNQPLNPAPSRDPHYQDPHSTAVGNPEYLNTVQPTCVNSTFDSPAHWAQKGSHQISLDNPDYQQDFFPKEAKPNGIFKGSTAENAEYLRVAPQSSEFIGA

In the case of `C=CC(=O)Nc1ccc2c(c1)N(Cc1ccccc1)C(=O)c1cc(-c3ccc(N4CCNCC4)cc3)ccc1N2` [Compound I-3, N-(10-Benzyl-11-oxo-2-(4-(piperazin-1-yl)phenyl)-10,11-dihydro-5H-dibenzo[b,e][1,4]diazepin-8-yl)acrylamide], the EC50 runs as follows: under setting [1], no less than 750 nM; under setting [2], no less than 750 nM.
Regarding `C=CC(=O)Nc1ccc2c(c1)N(Cc1ccccc1)C(=O)c1cc(-c3ccc4[nH]ccc4c3)ccc1N2` [Compound I-1], the EC50 under setting [1] is no less than 750 nM and the EC50 under setting [2] was in the range of 500 to 750 nM.
With `O=C1c2cc(Br)ccc2Nc2ccc(F)cc2N1Cc1ccccc1` [I-a, 10-Benzyl-2-bromo-8-fluoro-5,10-dihydro-11H-dibenzo[b,e][1,4]diazepin-11-one], the EC50 under setting [1] was no less than 750 nM and the EC50 under setting [2] was 250 to 500 nM.
For `O=C(CCl)Nc1ccc2c(c1)N(Cc1ccccc1)C(=O)c1cc(-c3ccc4[nH]ccc4c3)ccc1N2` [Compound I-2], the EC50 is less than 250 nM under setting [1] and less than 250 nM under setting [2].
